The test system of experiment [1] is Mycosphaerella graminicola (Septoria tritici). The experiment can be described thus: Mycosphaerella graminicola (Septoria tritici) / liquid culture (Septoria blotch). The class given is cell-based. The conditions noted are these: Zymoseptoria tritici, compared to untreated control. As for the experimental part: Example B15: Mycosphaerella graminicola (Septoria tritici)/Liquid Culture (Septoria Blotch) Conidia of the fungus from cryogenic storage are directly mixed into nutrient broth (PDB potato dextrose broth). After placing a (DMSO) solution of test compound into a microtiter plate (96-well format), the nutrient broth containing the fungal spores is added. The test plates are incubated at 24° C. and the inhibition of growth is determined photometrically 4 to 5 days after application.

Experiment [2] concerns Mycosphaerella arachidis (Cercospora arachidicola). The experiment in a line: Mycosphaerella arachidis (Cercospora arachidicola) / liquid culture (early leaf spot). The class given is cell-based. The conditions noted are these: compared to untreated control. The protocol: Example B9: Mycosphaerella arachidis (Cercospora arachidicola)/Liquid Culture (Early Leaf Spot) Conidia of the fungus from cryogenic storage are directly mixed into nutrient broth (PDB potato dextrose broth). After placing a (DMSO) solution of test compound into a microtiter plate (96-well format), the nutrient broth containing the fungal spores is added. The test plates are incubated at 24° C. and the inhibition of growth is determined photometrically 4 to 5 days after application.

As a reminder, the inhibition of growth is how much of the control response was suppressed. A high value points to a response far below the control.

In experiment [1], `Cc1c(C2CN(C(=O)Nc3ccc(Cl)cc3)Cc3ccccc32)cnn1C` (stereo not drawn) [Compound P-40, N-(4-chlorophenyl)-4-(1,5-dimethylpyrazol-4-yl)-3,4-dihydro-1H-isoquinoline-2-carboxamide] displayed an inhibition of growth at 20 ppm of at least 80%.

In the case of `Cc1c([C@H]2CN(C(=O)CCCC=C(F)F)[C@@H](C)c3ccccc32)cnn1C` (racemic) [Compound P-26, 6,6-difluoro-1-[rac-(1S,4S)-4-(1,5-dimethylpyrazol-4-yl)-1-methyl-3,4-dihydro-1H-isoquinolin-2-yl]hex-5-en-1-one], the inhibition of growth at 20 ppm in experiment [1] and in experiment [2] was at least 80% each time.

Consider `Cc1nc(NC(=O)N2Cc3ccccc3C(c3cnn(C)c3C)C2)ccc1Cl` (stereo not drawn) [Compound P-35, N-(5-chloro-6-methyl-2-pyridyl)-4-(1,5-dimethylpyrazol-4-yl)-3,4-dihydro-1H-isoquinoline-2-carboxamide], for which the inhibition of growth at 20 ppm in experiment [1] is at least 80%.

With `Cc1c(C2CN(C(=O)OCCCCC(F)F)Cc3ccccc32)cnn1C` (stereo not drawn) [Compound P-54, 5,5-difluoropentyl 4-(1,5-dimethylpyrazol-4-yl)-3,4-dihydro-1H-isoquinoline-2-carboxylate], the inhibition of growth at 20 ppm in experiment [1] and in experiment [2] was at least 80% each time.

As to `CCCCCCC(=O)N1Cc2ccccc2C(C)(c2cnn(C)c2)C1` (stereo not drawn) [Compound P-8, 1-[4-methyl-4-(1-methylpyrazol-4-yl)-1,3-dihydroisoquinolin-2-yl]heptan-1-one], the inhibition of growth at 20 ppm in experiment [1] is at least 80%.

In experiment [1], `CCCCCCCCCC(=O)N1Cc2ccccc2C(c2cnn(C)c2C)C1` (stereo not drawn) [Compound P-9, 1-[4-(1,5-dimethylpyrazol-4-yl)-3,4-dihydro-1H-isoquinolin-2-yl]decan-1-one] displayed an inhibition of growth at 20 ppm of at least 80%.

The molecule `Cc1c(C2CN(C(=O)OCCC3CC3)Cc3ccccc32)cnn1C` (stereo not drawn) [Compound P-3, 2-cyclopropylethyl 4-(1,5-dimethylpyrazol-4-yl)-3,4-dihydro-1H-isoquinoline-2-carboxylate] displayed an inhibition of growth at 20 ppm in experiment [1] of at least 80%.

`Cc1c(C2CN(C(=O)NCCC(C)(C)C3CC3)Cc3ccccc32)cnn1C` (stereo not drawn) [Compound P-39, N-(3-cyclopropyl-3-methyl-butyl)-4-(1,5-dimethylpyrazol-4-yl)-3,4-dihydro-1H-isoquinoline-2-carboxamide]: the inhibition of growth at 20 ppm in experiment [1] was at least 80%.

Consider `Cc1c([C@H]2CN(C(=O)NCCCCCF)[C@@H](C)c3ccccc32)cnn1C` [Compound P-52, (1S,4S)-4-(1,5-dimethylpyrazol-4-yl)-N-(5-fluoropentyl)-1-methyl-3,4-dihydro-1H-isoquinoline-2-carboxamide], for which, in experiment [1], the inhibition of growth at 20 ppm was at least 80%.

For the molecule `Cn1cc(C2CN(C(=O)CCc3ccc(F)cc3F)Cc3ccccc32)cn1` (stereo not drawn) [Compound P-1, 3-(2,4-difluorophenyl)-1-[4-(1-methylpyrazol-4-yl)-3,4-dihydro-1H-isoquinolin-2-yl]propan-1-one], the inhibition of growth at 20 ppm in experiment [1] and in experiment [2] was at least 80% each time.

`Cc1c(C2CN(C(=O)COc3ccc(F)cc3F)Cc3ccccc32)cnn1C` (stereo not drawn) [Compound P-13, 2-(2,4-difluorophenoxy)-1-[4-(1,5-dimethylpyrazol-4-yl)-3,4-dihydro-1H-isoquinolin-2-yl]ethanone] gave an inhibition of growth at 20 ppm in experiment [1] of at least 80%.

In experiment [1], `Cc1c(C2CN(C(=O)OCCc3ccc(F)cc3)Cc3ccccc32)cnn1C` (stereo not drawn) [Compound P-25, 2-(4-fluorophenyl)ethyl 4-(1,5-dimethylpyrazol-4-yl)-3,4-dihydro-1H-isoquinoline-2-carboxylate] registered an inhibition of growth at 20 ppm of at least 80%.

In experiment [1], `Cc1c(C2CN(C(=O)CCCCC3CCSS3)Cc3ccccc32)cnn1C` (stereo not drawn) [Compound P-18, 1-[4-(1,5-dimethylpyrazol-4-yl)-3,4-dihydro-1H-isoquinolin-2-yl]-5-(dithiolan-3-yl)pentan-1-one] yielded an inhibition of growth at 20 ppm of at least 80%.

With `Cc1c(C2CN(C(=O)Nc3ccc(C4CC4)cc3)Cc3ccccc32)cnn1C` (stereo not drawn) [Compound P-41, N-(4-cyclopropylphenyl)-4-(1,5-dimethylpyrazol-4-yl)-3,4-dihydro-1H-isoquinoline-2-carboxamide], the inhibition of growth at 20 ppm in experiment [1] is at least 80%.

In experiment [1], `Cc1c(C2CN(C(=O)Nc3nc4ccccc4s3)Cc3ccccc32)cnn1C` (stereo not drawn) [Compound P-33, N-(1,3-benzothiazol-2-yl)-4-(1,5-dimethylpyrazol-4-yl)-3,4-dihydro-1H-isoquinoline-2-carboxamide] registered an inhibition of growth at 20 ppm of at least 80%.

In turn, `Cn1cc(C2(C)CN(C(=O)OCCC3CCCCC3)Cc3ccccc32)cn1` (stereo not drawn) [Compound P-12, 2-cyclohexylethyl 4-methyl-4-(1-methylpyrazol-4-yl)-1,3-dihydroisoquinoline-2-carboxylate] came in with an inhibition of growth at 20 ppm in experiment [1] of at least 80%.

In experiment [1], `CCCCCC(=O)N1Cc2ccccc2C(c2cnn(C)c2C)C1` (stereo not drawn) [Compound P-5, 1-[4-(1,5-dimethylpyrazol-4-yl)-3,4-dihydro-1H-isoquinolin-2-yl]hexan-1-one] had an inhibition of growth at 20 ppm of at least 80%.

With `Cc1c(C2CN(C(=O)NCCCC3CCCC3)Cc3ccccc32)cnn1C` (stereo not drawn) [Compound P-38, N-(3-cyclopentylpropyl)-4-(1,5-dimethylpyrazol-4-yl)-3,4-dihydro-1H-isoquinoline-2-carboxamide], the inhibition of growth at 20 ppm in experiment [1] was at least 80%.

Consider `Cc1c(C2CN(C(=O)COCc3ccc(F)cc3F)Cc3ccccc32)cnn1C` (stereo not drawn) [Compound P-15, 2-[(2,4-difluorophenyl)methoxy]-1-[4-(1,5-dimethylpyrazol-4-yl)-3,4-dihydro-1H-isoquinolin-2-yl]ethanone], for which, in experiment [1], the inhibition of growth at 20 ppm is at least 80%.

Turning to `Cc1c([C@H]2CN(C(=O)NCc3ccc(F)cc3F)[C@@H](C)c3ccccc32)cnn1C` (racemic) [Compound P-44, rac-(1S,4S)-N-[(2,4-difluorophenyl)methyl]-4-(1,5-dimethylpyrazol-4-yl)-1-methyl-3,4-dihydro-1H-isoquinoline-2-carboxamide], the inhibition of growth at 20 ppm in experiment [1] was at least 80%.

For `Cc1c(C2CN(C(=O)CCc3ccc(Br)cc3)Cc3ccccc32)cnn1C` (stereo not drawn) [Compound P-20, 3-(4-bromophenyl)-1-[4-(1,5-dimethylpyrazol-4-yl)-3,4-dihydro-1H-isoquinolin-2-yl]propan-1-one], in experiment [1], the inhibition of growth at 20 ppm is at least 80%.

The molecule `Cc1c(C2CN(C(=O)CCCCC3CC3)Cc3ccccc32)cnn1C` (stereo not drawn) [Compound P-48, 5-cyclopropyl-1-[4-(1,5-dimethylpyrazol-4-yl)-3,4-dihydro-1H-isoquinolin-2-yl]pentan-1-one] had an inhibition of growth at 20 ppm in experiment [1] of at least 80%.

For `Cc1c(C2CN(C(=O)Nc3cc(C(C)(C)C)on3)Cc3ccccc32)cnn1C` (stereo not drawn) [Compound P-34, N-(5-tert-butylisoxazol-3-yl)-4-(1,5-dimethylpyrazol-4-yl)-3,4-dihydro-1H-isoquinoline-2-carboxamide], in experiment [1], the inhibition of growth at 20 ppm is at least 80%.

Regarding `Cc1c(C2CN(C(=O)CCCC(C)C)Cc3ccccc32)cnn1C` (stereo not drawn) [Compound P-19, 1-[4-(1,5-dimethylpyrazol-4-yl)-3,4-dihydro-1H-isoquinolin-2-yl]-5-methyl-hexan-1-one], the inhibition of growth at 20 ppm in experiment [1] and in experiment [2] was at least 80% throughout.

As for `Cc1c(C2CN(C(=O)CCc3ccc(Cl)c(Cl)c3)Cc3ccccc32)cnn1C` (stereo not drawn) [Compound P-23, 3-(3,4-dichlorophenyl)-1-[4-(1,5-dimethylpyrazol-4-yl)-3,4-dihydro-1H-isoquinolin-2-yl]propan-1-one], in experiment [1], the inhibition of growth at 20 ppm was at least 80%.

On to `Cc1c(C2CN(C(=O)CCCC=C(F)F)Cc3ccccc32)cnn1C` (stereo not drawn) [Compound P-24, 1-[4-(1,5-dimethylpyrazol-4-yl)-3,4-dihydro-1H-isoquinolin-2-yl]-6,6-difluoro-hex-5-en-1-one], for which, in experiment [1], the inhibition of growth at 20 ppm was at least 80%.

For the molecule `C#CCCCCCC(=O)N1Cc2ccccc2C(c2cnn(C)c2C)C1` (stereo not drawn) [Compound P-21, 1-[4-(1,5-dimethylpyrazol-4-yl)-3,4-dihydro-1H-isoquinolin-2-yl]oct-7-yn-1-one], in experiment [1], the inhibition of growth at 20 ppm is at least 80%.

For `Cc1c(C2CN(C(=O)NCCC3CCCCCC3)Cc3ccccc32)cnn1C` (stereo not drawn) [Compound P-32, N-(2-cycloheptylethyl)-4-(1,5-dimethylpyrazol-4-yl)-3,4-dihydro-1H-isoquinoline-2-carboxamide], the inhibition of growth at 20 ppm in experiment [1] was at least 80%.

For the molecule `Cc1c(C2CN(C(=O)CSc3ccc(F)cc3F)Cc3ccccc32)cnn1C` (stereo not drawn) [Compound P-14, 2-(2,4-difluorophenyl)sulfanyl-1-[4-(1,5-dimethylpyrazol-4-yl)-3,4-dihydro-1H-isoquinolin-2-yl]ethanone], the inhibition of growth at 20 ppm in experiment [1] and in experiment [2] was at least 80% each time.

For `Cc1c([C@H]2CN(C(=O)NCCCC3CC3)[C@@H](C)c3ccccc32)cnn1C` [Compound P-51, (1S,4S)-N-(3-cyclopropylpropyl)-4-(1,5-dimethylpyrazol-4-yl)-1-methyl-3,4-dihydro-1H-isoquinoline-2-carboxamide], the inhibition of growth at 20 ppm in experiment [1] and in experiment [2] was at least 80% each time.

In turn, `Cc1c([C@H]2CN(C(=O)NCCCCC(F)F)[C@@H](C)c3ccccc32)cnn1C` [Compound P-53, (1S,4S)-N-(5,5-difluoropentyl)-4-(1,5-dimethylpyrazol-4-yl)-1-methyl-3,4-dihydro-1H-isoquinoline-2-carboxamide] showed an inhibition of growth at 20 ppm in experiment [1] of at least 80%.

In the case of `Cc1c(C2CN(C(=O)OCCCCCF)Cc3ccccc32)cnn1C` (stereo not drawn) [Compound P-55, 5-fluoropentyl 4-(1,5-dimethylpyrazol-4-yl)-3,4-dihydro-1H-isoquinoline-2-carboxylate], the inhibition of growth at 20 ppm in experiment [1] and in experiment [2] was at least 80% throughout.

For the origin of these results see US20260193226A1, “MICROBIOCIDAL TETRAHYDROISOQUINOLINE DERIVATIVES” (SYNGENTA CROP PROTECTION AG, priority 2022, published 2026).
